Data set [1] deals with Candida albicans. The experiment in a line: Selectivity ratio of IC50 for inhibition of Candida albicans Fructose-1,6-Bisphosphate Aldolase C292S mutant to IC50 for inhibition of wild type Candida albicans Fructose-1,6-Bisphosphate Aldolase.
The nature of data set [2]: Inhibition of Candida albicans Fructose-1,6-Bisphosphate Aldolase C292S mutant transfected in Escherichia coli BL21 (DE3) incubated for 3 mins in presence of NADH by spectrophotometric analysis.
Data set [3] in a line: Inhibition of Candida albicans Fructose-1,6-Bisphosphate Aldolase C157S mutant transfected in Escherichia coli BL21 (DE3) incubated for 3 mins in presence of NADH by spectrophotometric analysis.
The nature of data set [4]: Inhibition of Candida albicans Fructose-1,6-Bisphosphate Aldolase C111S mutant transfected in Escherichia coli BL21 (DE3) incubated for 3 mins in presence of NADH by spectrophotometric analysis.
Data set [5] can be described thus: Inhibition of wild type Candida albicans Fructose-1,6-Bisphosphate Aldolase transfected in Escherichia coli BL21 (DE3) incubated for 3 mins in presence of NADH by spectrophotometric analysis.
Data set [6] concerns Candida albicans. The experiment in a line: Inhibition of wild type Candida albicans Fructose-1,6-Bisphosphate Aldolase transfected in Escherichia coli BL21 (DE3) assessed as Kcat by kinetic based analysis.
Data set [7] relates to Candida albicans. As to the kind of experiment: Inhibition of wild type Candida albicans Fructose-1,6-Bisphosphate Aldolase transfected in Escherichia coli BL21 (DE3) assessed as Km by kinetic based analysis.
Data set [8] has as its system Candida albicans. As to the kind of experiment: Inhibition of wild type Candida albicans Fructose-1,6-Bisphosphate Aldolase transfected in Escherichia coli BL21 (DE3) assessed as Kcat/Km by kinetic based analysis.
Data set [9] has as its system Candida albicans. The experiment in a line: Inhibition of Candida albicans Fructose-1,6-Bisphosphate Aldolase C292S mutant transfected in Escherichia coli BL21 (DE3) assessed as Kcat by kinetic based analysis.
The subject of data set [10] is Candida albicans. As to the kind of experiment: Inhibition of Candida albicans Fructose-1,6-Bisphosphate Aldolase C292S mutant transfected in Escherichia coli BL21 (DE3) assessed as Km by kinetic based analysis.
In data set [11] the test system is Candida albicans. The experiment in a line: Inhibition of Candida albicans Fructose-1,6-Bisphosphate Aldolase C292S mutant transfected in Escherichia coli BL21 (DE3) assessed as Kcat/Km by kinetic based analysis.
Data set [12] concerns Candida albicans. The experiment in a line: Inhibition of Candida albicans Fructose-1,6-Bisphosphate Aldolase C157S mutant transfected in Escherichia coli BL21 (DE3) assessed as Kcat by kinetic based analysis.
Data set [13] has as its system Candida albicans. The experiment in a line: Inhibition of Candida albicans Fructose-1,6-Bisphosphate Aldolase C157S mutant transfected in Escherichia coli BL21 (DE3) assessed as Km by kinetic based analysis.
Data set [14] relates to Candida albicans. The experiment in a line: Inhibition of Candida albicans Fructose-1,6-Bisphosphate Aldolase C157S mutant transfected in Escherichia coli BL21 (DE3) assessed as Kcat/Km by kinetic based analysis.
In data set [15] the test system is Candida albicans. As to the kind of experiment: Inhibition of Candida albicans Fructose-1,6-Bisphosphate Aldolase C111S mutant transfected in Escherichia coli BL21 (DE3) assessed as Kcat by kinetic based analysis.
Data set [16] concerns Candida albicans. The experiment in a line: Inhibition of Candida albicans Fructose-1,6-Bisphosphate Aldolase C111S mutant transfected in Escherichia coli BL21 (DE3) assessed as Km by kinetic based analysis.
For data set [17], the system named is Candida albicans. The experiment in a line: Inhibition of Candida albicans Fructose-1,6-Bisphosphate Aldolase C111S mutant transfected in Escherichia coli BL21 (DE3) assessed as Kcat/Km by kinetic based analysis.
A short description of data set [18]: Binding affinity to Candida albicans Fructose-1,6-Bisphosphate Aldolase assessed as inhibition constant incubated for 12 to 40 mins by NADH-linked enzymatic assay.
The test system of data set [19] is Candida albicans. As to the kind of experiment: Binding affinity to Candida albicans Fructose-1,6-Bisphosphate Aldolase assessed as Kinact incubated for 12 to 40 mins by NADH-linked enzymatic assay. As to conditions: time 12-40 min.
Data set [20] has as its system Candida albicans. As to the kind of experiment: Binding affinity to Candida albicans Fructose-1,6-Bisphosphate Aldolase assessed as ratio of kinact/Ki incubated for 12 to 40 mins by NADH-linked enzymatic assay. The settings on record: time 12-40 min.
For data set [21], the system named is Candida albicans. As to the kind of experiment: Inhibition of Candida albicans Fructose-1,6-Bisphosphate Aldolase C292S mutant transfected in Escherichia coli BL21 (DE3) at 500 uM incubated for 3 mins in presence of NADH by spectrophotometric analysis relative to control.
The subject of data set [22] is Candida albicans. As to the kind of experiment: Antifungal activity against Candida albicans SC5314 incubated for 48 hrs by CLSI based broth microdilution method. It counts as functional.
In data set [23] the test system is Candida albicans. The experiment in a line: Antifungal activity against fluconazole resistant Candida albicans 103 incubated for 48 hrs by CLSI based broth microdilution method. It is filed as functional.
Data set [24] relates to Candida albicans. As to the kind of experiment: Antifungal activity against fluconazole resistant Candida albicans 7781 incubated for 48 hrs by CLSI based broth microdilution method. It counts as functional.
Data set [25] relates to Candida albicans. The experiment in a line: Antifungal activity against fluconazole resistant Candida albicans 904 incubated for 48 hrs by CLSI based broth microdilution method. It counts as functional.
Data set [26] concerns Candida albicans. As to the kind of experiment: Inhibition of wild type Candida albicans Fructose-1,6-Bisphosphate Aldolase transfected in Escherichia coli BL21 (DE3) at 100 uM incubated for 3 mins in presence of NADH by spectrophotometric analysis relative to control.
A short description of data set [27]: Toxicity in po dosed rat assessed as lethal dose. It is filed as organism-based. As to conditions: in vivo.
Data set [28] is described as follows: Cytotoxicity against human HaCaT cells. It counts as toxicity, cell-based.

≈ marks a conversion by molar mass, not a printed value. Where only a bound is given, the exact number is not on record here.

On to `O=c1c2ccccc2[se]n1-c1nncs1`, for which the Ratio IC50 in the data set on Candida albicans [1] turned out to be 11.3. Also, the IC50 in data set [2] was 1750 nM; in data set [3] it was 227 nM; in data set [4] it was 303 nM; in data set [5], 155 nM.
On to `CCCCn1sc2ccccc2c1=O`, for which the kcat in the data set with Candida albicans [6] came out at 38.6 s⁻¹; in the data set on Candida albicans [9], 24.8 s⁻¹; in the data set on Candida albicans [12] it was 34.7 s⁻¹; in the data set with Candida albicans [15], 36.1 s⁻¹. The Michaelis-Menten constant (Km) in the data set on Candida albicans [7] is 21.9 µM; in the data set on Candida albicans [10], 45.7 µM; in the data set with Candida albicans [13], 17.8 µM; with Candida albicans [16], 25.1 µM. Besides, the kcat/Km in the data set on Candida albicans [8] came to 1.8e+06 M⁻¹ s⁻¹; in the data set with Candida albicans [11], 500000 M⁻¹ s⁻¹; with Candida albicans [14], 2e+06 M⁻¹ s⁻¹; with Candida albicans [17], 1.4e+06 M⁻¹ s⁻¹. The Ratio IC50 with Candida albicans [1] was over 28.3. Also, the IC50 in data set [2] was over 500000 nM; in data set [3], 12500 nM; in [4] it was 9900 nM; in data set [5], 17700 nM. The Ki in data set [18] was found to be 5960 nM. Also, in the data set on Candida albicans [19], the Kinact was found to be 0.00178 s⁻¹. The Ratio in the data set with Candida albicans [20] is 300 M⁻¹ s⁻¹. In the data set with Candida albicans [21], the inhibition is under 50%.
Consider `O=C1c2ccccc2CN1Cc1ccccc1`, for which the MIC80 against Candida albicans [22], in the data set with Candida albicans [23], in the data set with Candida albicans [24] and in the data set on Candida albicans [25] was over 64 µg/mL each time. The IC50 in data set [5] was over 100000 nM. Besides, in the data set with Candida albicans [26], the inhibition is under 50%.
Turning to `O=C(NCc1ccccc1)N1Cc2ccccc2C1=O`, the MIC80 against Candida albicans [22], against Candida albicans [23], in the data set with Candida albicans [24] and in the data set on Candida albicans [25] was over 64 µg/mL in each case. The IC50 in data set [5] was over 100000 nM. Also, in the data set on Candida albicans [26], the inhibition was under 50%.
On to `O=C1c2ccccc2CN1c1ccccc1`, for which the MIC80 against Candida albicans [22], in the data set with Candida albicans [23], against Candida albicans [24] and in the data set on Candida albicans [25] was over 64 µg/mL each time. Moreover, the IC50 in data set [5] was over 100000 nM. Besides, the inhibition with Candida albicans [26] was under 50%.
`O=c1c2ccccc2[se]n1-c1ccccc1` [EBSELEN]: the Ratio IC50 in the data set with Candida albicans [1] is 80.4. Besides, the concentration for half-maximal inhibition (IC50) in data set [2] was 1150 nM; in data set [3], 31 nM; in [4], 72.6 nM; in data set [5], 14.3 nM; in data set [28], over 32000 nM. The MIC80 against Candida albicans [22], with Candida albicans [23], in the data set on Candida albicans [24] and in the data set on Candida albicans [25] was 2 µg/mL (≈ 7.29 µM) each time. Also, the LD in [27] is over 4600 mg/kg.

Values taken from ChEMBL document CHEMBL5042539, “Structure-Guided Discovery of the Novel Covalent Allosteric Site and Covalent Inhibitors of Fructose-1,6-Bisphosphate Aldolase to Overcome the Azole Resistance of Candidiasis” (J Med Chem, 2022).
